Assay results reported in ChEMBL document CHEMBL1201862, “PubChem BioAssay data set” (2004).
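Results reflect a 48-hour exposure of cells in 96-well plates to compound at five concentrations. At the GI50, growth is halved.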 Calls of active or inactive are those of the source. Cut-off read from the data, not from the text of the source: active = GI50 up to about 1.1 µM and inactive = higher.

How the values were obtained:
Experiment in all cases: growth of human tumour cells (NCI), 48 h
SK-MEL-5 = tested on: SK-MEL-5
A498 = tested on: A498
A549 = tested on: A549
Malme-3M = tested on: Malme-3M
IGROV-1 = tested on: IGROV-1
COLO 205 = tested on: COLO 205
OVCAR-8 = tested on: OVCAR-8
SK-OV-3 = tested on: SK-OV-3
SW-620 = tested on: SW-620
SR = tested on: SR
NCI-H522 = tested on: NCI-H522
U-251 = tested on: U-251
HCC 2998 = tested on: HCC 2998
TK-10 = tested on: TK-10
MOLT-4 = tested on: MOLT-4
HOP-62 = tested on: HOP-62
OVCAR-3 = tested on: OVCAR-3
RPMI-8226 = tested on: RPMI-8226
NCI-H226 = tested on: NCI-H226
HCT-116 = tested on: HCT-116
SF-539 = tested on: SF-539
XF498 = tested on: XF498
HT-29 = tested on: HT-29
EKVX = tested on: EKVX
NCI-H460 = tested on: NCI-H460
786-0 = tested on: 786-0
HCT-15 = tested on: HCT-15
SNB-78 = tested on: SNB-78
SK-MEL-2 = tested on: SK-MEL-2
ACHN = tested on: ACHN
SF-295 = tested on: SF-295
HOP-18 = tested on: HOP-18
LXFL 529 = tested on: LXFL 529
K562 = tested on: K562
SNB-19 = tested on: SNB-19
LOX IMVI = tested on: LOX IMVI
DLD-1 = tested on: DLD-1
SNB-75 = tested on: SNB-75
SK-MEL-28 = tested on: SK-MEL-28
KM-20L2 = tested on: KM-20L2
DMS-114 = tested on: DMS-114
M19-MEL = tested on: M19-MEL
KM12 = tested on: KM12
CAKI-1 = tested on: CAKI-1
SF-268 = tested on: SF-268
HOP-92 = tested on: HOP-92
SN12C = tested on: SN12C
DMS-273 = tested on: DMS-273
OVCAR-5 = tested on: OVCAR-5
M14 = tested on: M14
UO-31 = tested on: UO-31
UACC-62 = tested on: UACC-62
HL-60 = tested on: HL-60
RXF 393 = tested on: RXF 393
UACC-257 = tested on: UACC-257
CCRF-CEM = tested on: CCRF-CEM
NCI-H23 = tested on: NCI-H23
OVCAR-4 = tested on: OVCAR-4

Cc1ccc(N2C(=O)C3C=CC(n4[nH]c(=O)n(Cc5ccccc5)c4=O)CC3C2=O)cc1 (centres undefined)
GI50 (SK-MEL-5): > 100 µM (inactive) | GI50 (A498): > 100 µM (inactive) | GI50 (A549): > 100 µM (inactive) | GI50 (Malme-3M): > 100 µM (inactive) | GI50 (IGROV-1): > 100 µM (inactive) | GI50 (COLO 205): > 100 µM (inactive) | GI50 (OVCAR-8): > 100 µM (inactive) | GI50 (SK-OV-3): > 100 µM (inactive) | GI50 (SW-620): > 100 µM (inactive) | GI50 (SR): > 100 µM (inactive) | GI50 (NCI-H522): > 100 µM (inactive) | GI50 (U-251): > 100 µM (inactive) | GI50 (HCC 2998): > 100 µM (inactive) | GI50 (TK-10): > 100 µM (inactive) | GI50 (MOLT-4): > 100 µM (inactive) | GI50 (HOP-62): > 100 µM (inactive) | GI50 (OVCAR-3): > 100 µM (inactive) | GI50 (RPMI-8226): > 100 µM (inactive) | GI50 (NCI-H226): > 100 µM (inactive) | GI50 (HCT-116): > 100 µM (inactive) | GI50 (SF-539): > 100 µM (inactive) | GI50 (XF498): > 100 µM (inactive) | GI50 (HT-29): > 100 µM (inactive) | GI50 (EKVX): > 100 µM (inactive) | GI50 (NCI-H460): > 100 µM (inactive) | GI50 (786-0): > 100 µM (inactive) | GI50 (HCT-15): > 100 µM | GI50 (SNB-78): > 100 µM (inactive) | GI50 (SK-MEL-2): > 100 µM (inactive) | GI50 (ACHN): > 100 µM (inactive) | GI50 (SF-295): > 100 µM (inactive) | GI50 (HOP-18): > 100 µM (inactive) | GI50 (LXFL 529): > 100 µM (inactive) | GI50 (K562): > 100 µM (inactive) | GI50 (SNB-19): > 100 µM (inactive) | GI50 (LOX IMVI): > 100 µM (inactive) | GI50 (DLD-1): > 100 µM (inactive) | GI50 (SNB-75): 74.6 µM (inactive) | GI50 (SK-MEL-28): > 100 µM (inactive) | GI50 (KM-20L2): > 100 µM (inactive) | GI50 (DMS-114): > 100 µM (inactive) | GI50 (M19-MEL): > 100 µM (inactive) | GI50 (KM12): > 100 µM (inactive) | GI50 (CAKI-1): > 100 µM (inactive) | GI50 (SF-268): > 100 µM (inactive) | GI50 (HOP-92): > 100 µM (inactive) | GI50 (SN12C): > 100 µM (inactive) | GI50 (DMS-273): > 100 µM (inactive) | GI50 (OVCAR-5): > 100 µM (inactive) | GI50 (M14): > 100 µM (inactive) | GI50 (UO-31): > 100 µM (inactive) | GI50 (UACC-62): > 100 µM (inactive) | GI50 (HL-60): > 100 µM (inactive) | GI50 (RXF 393): > 100 µM (inactive) | GI50 (UACC-257): > 100 µM (inactive) | GI50 (CCRF-CEM): > 100 µM (inactive) | GI50 (NCI-H23): > 100 µM (inactive)

CC1=[N+]([O-])c2ccccc2C(=O)C1=O
GI50 (SK-MEL-5): > 100 µM (inactive) | GI50 (A498): > 100 µM (inactive) | GI50 (OVCAR-4): 68.5 µM (inactive) | GI50 (A549): > 100 µM (inactive) | GI50 (Malme-3M): > 100 µM (inactive) | GI50 (IGROV-1): > 100 µM (inactive) | GI50 (COLO 205): > 100 µM (inactive) | GI50 (OVCAR-8): > 100 µM (inactive) | GI50 (SK-OV-3): > 100 µM (inactive) | GI50 (SW-620): 89.5 µM (inactive) | GI50 (NCI-H522): 23.3 µM (inactive) | GI50 (U-251): 99.8 µM (inactive) | GI50 (HCC 2998): > 100 µM (inactive) | GI50 (TK-10): > 100 µM (inactive) | GI50 (MOLT-4): 43.2 µM (inactive) | GI50 (HOP-62): > 100 µM (inactive) | GI50 (OVCAR-3): 29.2 µM (inactive) | GI50 (RPMI-8226): 35.5 µM (inactive) | GI50 (NCI-H226): 15.8 µM (inactive) | GI50 (HCT-116): 48 µM (inactive) | GI50 (SF-539): > 100 µM (inactive) | GI50 (XF498): > 100 µM (inactive) | GI50 (HT-29): > 100 µM (inactive) | GI50 (EKVX): > 100 µM (inactive) | GI50 (NCI-H460): 61 µM (inactive) | GI50 (786-0): > 100 µM (inactive) | GI50 (HCT-15): 56.4 µM | GI50 (SNB-78): > 100 µM (inactive) | GI50 (SK-MEL-2): > 100 µM (inactive) | GI50 (ACHN): > 100 µM (inactive) | GI50 (SF-295): > 100 µM (inactive) | GI50 (HOP-18): > 100 µM (inactive) | GI50 (LXFL 529): > 100 µM (inactive) | GI50 (K562): 29.1 µM (inactive) | GI50 (SNB-19): 93.8 µM (inactive) | GI50 (LOX IMVI): 41 µM (inactive) | GI50 (DLD-1): > 100 µM (inactive) | GI50 (SNB-75): > 100 µM (inactive) | GI50 (SK-MEL-28): > 100 µM (inactive) | GI50 (KM-20L2): > 100 µM (inactive) | GI50 (DMS-114): > 100 µM (inactive) | GI50 (M19-MEL): 44.8 µM (inactive) | GI50 (KM12): > 100 µM (inactive) | GI50 (CAKI-1): > 100 µM (inactive) | GI50 (SF-268): 42.2 µM (inactive) | GI50 (HOP-92): 69 µM (inactive) | GI50 (SN12C): > 100 µM (inactive) | GI50 (DMS-273): > 100 µM (inactive) | GI50 (OVCAR-5): > 100 µM (inactive) | GI50 (M14): > 100 µM (inactive) | GI50 (UO-31): > 100 µM (inactive) | GI50 (UACC-62): 55.6 µM (inactive) | GI50 (HL-60): 40.3 µM (inactive) | GI50 (RXF 393): 81.1 µM (inactive) | GI50 (UACC-257): 65.8 µM (inactive) | GI50 (CCRF-CEM): 25.9 µM (inactive) | GI50 (NCI-H23): 92.9 µM (inactive)
